The values below are quoted from earlier work in PubChem BioAssay AID1259409 (Chemical Carcinogenesis Research Information System (CCRIS), 2018).

This data set has as its system rodent chemically induced tumor inhibition, incidence and multiplicity. The data set can be described thus: CCRIS tumor inhibitor studies. To be noted: Dose [Inhibitor]: 0.

The structures appear in SMILES notation.

Take `CC(C)=CCOc1c2occc2cc2ccc(=O)oc12`: the “tumour outcome (control, treated, inhibition, significance)” value (Carcinogen: 7,12-DIMETHYLBENZ[A]ANTHRACENE, 57-97-6, 400 NMOL 1/WK FOR 45 WK APPLIED 5 MIN PRIOR TO EACH CARCINOGEN DOSE (STUDY DURATION: 45 WK), Route [Inhibitor]: DERMAL, Species: MOUSE, Strain/Sex: SENCAR, Target Tissue: Type of Lesion: SKIN: PAPILLOMA, Dose [Carcinogen]: 50 NMOL 1/WK FOR 45 WK, Promoter: NONE USED) was 97%, 60%, 38%, p<0.05; the “tumour outcome (control, treated, inhibition, significance)” value (Carcinogen: 7,12-DIMETHYLBENZ[A]ANTHRACENE, 57-97-6, 400 NMOL ONCE APPLIED 5 MIN PRIOR TO CARCINOGEN DOSE (STUDY DURATION: 25 WK), Route [Inhibitor]: DERMAL, Species: MOUSE, Strain/Sex: SENCAR, Target Tissue: Type of Lesion: SKIN: PAPILLOMA, Dose [Carcinogen]: 10 NMOL ONCE, Promoter: 12-O-TETRADECANOYLPHORBOL-13-ACETATE, 16561-29-8) is recorded as 93%, 93%, 0%, not significant; the “tumour outcome (control, treated, inhibition, significance)” value (Carcinogen: 7,12-DIMETHYLBENZ[A]ANTHRACENE, 57-97-6, 800 NMOL ONCE APPLIED 5 MIN PRIOR TO CARCINOGEN DOSE (STUDY DURATION: 25 WK), Route [Inhibitor]: DERMAL, Species: MOUSE, Strain/Sex: SENCAR, Target Tissue: Type of Lesion: SKIN: PAPILLOMA, Dose [Carcinogen]: 200 NMOL ONCE, Promoter: 12-O-TETRADECANOYLPHORBOL-13-ACETATE, 16561-29-8) is 93%, 75%, 19%, not significant; the “tumour outcome (control, treated, inhibition, significance)” value (Carcinogen: 7-12-DIMETHYLBENZ[A]ANTHRACENE, 57-97-6, 400 NMOL 1/WK FOR 45 WK APPLIED 5 MIN PRIOR TO EACH CARCINOGEN DOSE (STUDY DURATION: 45 WK), Route [Inhibitor]: DERMAL, Species: MOUSE, Strain/Sex: SENCAR, Target Tissue: Type of Lesion: SKIN: CARCINOMA, Dose [Carcinogen]: 50 NMOL 1/WK FOR 45 WK) is recorded as 90%, 53%, 41%, not calculated; the “tumour outcome (control, treated, inhibition, significance)” value (Carcinogen: 7-12-DIMETHYLBENZ[A]ANTHRACENE, 57-97-6, 800 NMOL 1/WK FOR 45 WK APPLIED 5 MIN PRIOR TO EACH CARCINOGEN DOSE (STUDY DURATION: 45 WK), Route [Inhibitor]: DERMAL, Species: MOUSE, Strain/Sex: SENCAR, Target Tissue: Type of Lesion: SKIN: CARCINOMA, Dose [Carcinogen]: 50 NMOL 1/WK FOR 45 WK) is listed as 90%, 37%, 59%, not calculated; the “tumour outcome (control, treated, inhibition, significance)” value (Carcinogen: 7-12-DIMETHYLBENZ[A]ANTHRACENE, 57-97-6, 800 NMOL 1/WK FOR 45 WK APPLIED 5 MIN PRIOR TO EACH CARCINOGEN DOSE (STUDY DURATION: 45 WK), Route [Inhibitor]: DERMAL, Species: MOUSE, Strain/Sex: SENCAR, Target Tissue: Type of Lesion: SKIN: PAPILLOMA, Dose [Carcinogen]: 50 NMOL 1/WK FOR 45 WK) is listed as 97%, 53%, 45%, p<0.05. Moreover, the “tumour outcome (control, treated, inhibition, significance)” value was 92%, 92%, 0%, not significant (Carcinogen: BENZO[A]PYRENE, 50-32-8, 800 NMOL ONCE APPLIED 5 MIN PRIOR TO CARCINOGEN DOSE (STUDY DURATION: 25 WK), Route [Inhibitor]: DERMAL, Species: MOUSE, Strain/Sex: SENCAR, Target Tissue: Type of Lesion: SKIN: PAPILLOMA, Dose [Carcinogen]: 200 NMOL ONCE, Promoter: 12-O-TETRADECANOYLPHORBOL-13-ACETATE, 16561-29-8) and 92%, 85%, 8%, not significant (Carcinogen: BENZO[A]PYRENE, 50-32-8, 1600 NMOL ONCE APPLIED 5 MIN PRIOR TO CARCINOGEN DOSE (STUDY DURATION: 25 WK), Route [Inhibitor]: DERMAL, Species: MOUSE, Strain/Sex: SENCAR, Target Tissue: Type of Lesion: SKIN: PAPILLOMA, Dose [Carcinogen]: 200 NMOL ONCE, Promoter: 12-O-TETRADECANOYLPHORBOL-13-ACETATE, 16561-29-8).
`C=C/C(C)=C/C=C/C(C)=C/C=C1/C(C)=CCCC1(C)C`: the “tumour outcome (control, treated, inhibition, significance)” value (Carcinogen: N-METHYL-N-NITROSOUREA, 684-93-5, 67 MG/KG DIET FOR FOR 88 D BEGINNING 2 D POST CARCINOGEN DOSE (STUDY DURATION: 90 D), Route [Inhibitor]: ORAL, Species: RAT, Strain/Sex: SPRAGUE-DAWLEY/FEMALE, Target Tissue: Type of Lesion: MAMMARY GLAND: ADENOCARCINOMA, Dose [Carcinogen]: 45 MG/KG BW ONCE, Promoter: NONE USED) was 100%, 93%, 7%, not significant; the “tumour outcome (control, treated, inhibition, significance)” value (Carcinogen: N-METHYL-N-NITROSOUREA, 684-93-5, 134 MG/KG DIET FOR 88 D BEGINNING 2 D POST CARCINOGEN DOSE (STUDY DURATION: 90 D), Route [Inhibitor]: ORAL, Species: RAT, Strain/Sex: SPRAGUE-DAWLEY/FEMALE, Target Tissue: Type of Lesion: MAMMARY GLAND: ADENOCARCINOMA, Dose [Carcinogen]: 45 MG/KG BW ONCE, Promoter: NONE USED) is on record as 100%, 100%, 0%, not significant; the “tumour outcome (control, treated, inhibition, significance)” value (Carcinogen: N-METHYL-N-NITROSOUREA, 684-93-5, 268 MG/KG DIET FOR 88 D BEGINNING 2 D POST CARCINOGEN DOSE (STUDY DURATION: 90 D), Route [Inhibitor]: ORAL, Species: RAT, Strain/Sex: SPRAGUE-DAWLEY/FEMALE, Target Tissue: Type of Lesion: MAMMARY GLAND: ADENOCARCINOMA, Dose [Carcinogen]: 45 MG/KG BW ONCE, Promoter: NONE USED) is listed as 100%, 87%, 13%, p<0.05; the “tumour outcome (control, treated, inhibition, significance)” value (Carcinogen: N-METHYL-N-NITROSOUREA, 684-93-5, 536 MG/KG DIET FOR 88 D BEGINNING 2 D POST CARCINOGEN DOSE (STUDY DURATION: 90 D), Route [Inhibitor]: ORAL, Species: RAT, Strain/Sex: SPRAGUE-DAWLEY/FEMALE, Target Tissue: Type of Lesion: MAMMARY GLAND: ADENOCARCINOMA, Dose [Carcinogen]: 45 MG/KG BW ONCE, Promoter: NONE USED) was 100%, 80%, 20%, p<0.05.
